{
  "source": "ChEMBL document CHEMBL1201862",
  "about": "“PubChem BioAssay data set” (2004)",
  "key": {"[1]": {"test_system": "H4", "experiment": "Luminescence Cell-Based Dose Response HTS to Identify Activators of 5'UTR Stem-Loop Driven Prion Protein mRNA Translation in H4 Neuroglioblastoma Cells. [Related pubchem assays: 1829 (Project Summary), 1814 (Primary HTS)]", "type": "functional", "details": "Homo sapiens"}, "[2]": {"experiment": "Luminescence Cell-Based Dose Response to Identify Activators of Luciferase Translation or Activity in H4-C Neuroglioblastoma Cells. [Related pubchem assays: 1829 (Project Summary), 1814 (Primary HTS)]", "type": "functional"}, "[3]": {"experiment": "Luminescence Cell-Based Dose Confirmation to Identify Activators of 5'UTR Stem-Loop Driven Alpha-Synuclein mRNA Translation in H4 Neuroglioblastoma Cells. [Related pubchem assays: 1829 (Project Summary), 1814 (Primary HTS)]", "type": "functional"}, "[4]": {"experiment": "Luminescence Cell-Based Dose Response HTS to Identify Activators of Luciferase Translation or Activity in H4 […] Cells. [Related pubchem assays: 1829 (Project Summary), 1814 (Primary HTS)]", "type": "functional"}, "[5]": {"experiment": "Luminescence Cell-Based Dose Response to Identify Activators of 5'UTR Stem-Loop Driven Prion Protein mRNA Translation in H4-C Neuroglioblastoma Cells. [Related pubchem assays: 1829 (Project Summary), 1814 (Primary HTS)]", "type": "functional"}, "[6]": {"experiment": "Luminescence Cell-Based Dose Confirmation HTS to Identify Activators of 5'UTR Stem-Loop Driven Alpha-Synuclein mRNA Translation in H4 Neuroglioblastoma Cells. [Related pubchem assays: 1829 (Project Summary), 1814 (Primary HTS)]", "type": "functional"}, "[7]": {"target": "Large T antigen (Simian virus 40, UniProt P03070)", "sequence (P03070 whole entry)": "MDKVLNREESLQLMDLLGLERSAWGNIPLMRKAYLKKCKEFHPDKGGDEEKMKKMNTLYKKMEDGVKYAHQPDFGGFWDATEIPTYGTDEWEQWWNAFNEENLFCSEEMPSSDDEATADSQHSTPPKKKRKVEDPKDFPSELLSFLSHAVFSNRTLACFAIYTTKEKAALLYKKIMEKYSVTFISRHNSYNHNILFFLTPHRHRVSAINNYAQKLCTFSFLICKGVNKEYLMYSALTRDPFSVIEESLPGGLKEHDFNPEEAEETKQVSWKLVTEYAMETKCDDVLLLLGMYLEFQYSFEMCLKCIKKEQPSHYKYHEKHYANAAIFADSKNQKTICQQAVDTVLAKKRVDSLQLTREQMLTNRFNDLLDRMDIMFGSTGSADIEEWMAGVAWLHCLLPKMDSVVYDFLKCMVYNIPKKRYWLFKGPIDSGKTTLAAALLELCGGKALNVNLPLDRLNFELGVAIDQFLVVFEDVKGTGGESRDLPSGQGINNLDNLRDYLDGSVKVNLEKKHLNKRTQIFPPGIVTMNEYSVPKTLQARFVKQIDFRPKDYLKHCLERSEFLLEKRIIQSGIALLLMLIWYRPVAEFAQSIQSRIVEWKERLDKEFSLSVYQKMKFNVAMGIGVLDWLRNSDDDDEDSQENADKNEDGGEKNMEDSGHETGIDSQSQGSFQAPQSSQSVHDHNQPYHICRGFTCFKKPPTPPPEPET", "type": "functional, Betapolyomavirus macacae"}, "[8]": {"target": "T1, Histone-lysine N-methyltransferase NSD2 (Homo sapiens, UniProt O96028)", "T1 sequence (O96028 whole entry)": "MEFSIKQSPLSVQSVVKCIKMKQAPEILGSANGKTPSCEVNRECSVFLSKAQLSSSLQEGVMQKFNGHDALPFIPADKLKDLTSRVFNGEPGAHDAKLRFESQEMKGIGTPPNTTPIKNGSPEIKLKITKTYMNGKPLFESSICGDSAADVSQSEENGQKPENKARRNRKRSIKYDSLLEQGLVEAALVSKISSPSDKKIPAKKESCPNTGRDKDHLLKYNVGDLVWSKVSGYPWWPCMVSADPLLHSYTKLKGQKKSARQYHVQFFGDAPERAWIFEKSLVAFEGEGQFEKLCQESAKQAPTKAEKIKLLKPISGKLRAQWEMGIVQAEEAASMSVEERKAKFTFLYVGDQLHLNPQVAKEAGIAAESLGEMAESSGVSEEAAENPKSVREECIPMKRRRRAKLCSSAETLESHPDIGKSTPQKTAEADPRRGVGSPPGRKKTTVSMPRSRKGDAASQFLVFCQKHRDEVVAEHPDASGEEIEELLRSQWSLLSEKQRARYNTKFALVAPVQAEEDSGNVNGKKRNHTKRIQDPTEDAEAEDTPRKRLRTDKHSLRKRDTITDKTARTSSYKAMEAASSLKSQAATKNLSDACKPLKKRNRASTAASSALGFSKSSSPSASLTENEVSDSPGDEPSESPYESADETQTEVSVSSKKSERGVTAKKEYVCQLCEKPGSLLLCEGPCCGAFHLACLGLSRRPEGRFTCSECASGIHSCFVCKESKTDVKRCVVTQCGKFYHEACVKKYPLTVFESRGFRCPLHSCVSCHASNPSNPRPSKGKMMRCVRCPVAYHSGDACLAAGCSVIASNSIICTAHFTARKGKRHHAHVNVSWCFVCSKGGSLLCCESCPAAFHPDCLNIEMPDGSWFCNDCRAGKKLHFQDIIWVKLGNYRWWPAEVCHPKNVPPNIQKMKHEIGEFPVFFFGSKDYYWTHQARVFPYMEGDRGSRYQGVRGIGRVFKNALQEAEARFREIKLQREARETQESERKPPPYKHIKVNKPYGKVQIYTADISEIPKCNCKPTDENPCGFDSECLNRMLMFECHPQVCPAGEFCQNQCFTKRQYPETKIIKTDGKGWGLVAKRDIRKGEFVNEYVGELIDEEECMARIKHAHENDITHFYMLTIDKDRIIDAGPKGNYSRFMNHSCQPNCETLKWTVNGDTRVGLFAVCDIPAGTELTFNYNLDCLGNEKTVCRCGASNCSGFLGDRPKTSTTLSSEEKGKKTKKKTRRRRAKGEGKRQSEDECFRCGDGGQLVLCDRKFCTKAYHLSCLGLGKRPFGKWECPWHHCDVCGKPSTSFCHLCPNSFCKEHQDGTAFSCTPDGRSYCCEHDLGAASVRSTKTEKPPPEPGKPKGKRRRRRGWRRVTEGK", "type": "biochemical"}, "[9]": {"experiment": "C. albicans growth with fluconazole, confirmation, fluorescence, retest (AID 2467)", "type": "functional, cell-based"}, "[10]": {"target": "Bifunctional protein GlmU (Mycobacterium tuberculosis, UniProt P9WMN3)", "sequence (P9WMN3 whole entry)": "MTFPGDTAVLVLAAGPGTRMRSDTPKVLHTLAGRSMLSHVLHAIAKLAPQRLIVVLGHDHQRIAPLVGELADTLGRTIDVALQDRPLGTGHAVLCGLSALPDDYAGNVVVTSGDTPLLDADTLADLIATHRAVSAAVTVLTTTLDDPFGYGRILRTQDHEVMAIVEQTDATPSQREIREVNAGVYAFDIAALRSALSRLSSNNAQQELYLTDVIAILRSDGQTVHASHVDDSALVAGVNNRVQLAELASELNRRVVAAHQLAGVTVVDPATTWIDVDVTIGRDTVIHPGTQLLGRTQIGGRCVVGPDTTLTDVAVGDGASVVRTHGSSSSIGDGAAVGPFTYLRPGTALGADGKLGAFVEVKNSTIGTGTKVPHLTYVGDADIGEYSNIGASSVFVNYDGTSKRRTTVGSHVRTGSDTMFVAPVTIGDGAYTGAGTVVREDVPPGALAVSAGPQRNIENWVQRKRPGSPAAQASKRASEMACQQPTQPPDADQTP", "experiment": "Inhibitors of Mycobacterial Glucosamine-1-phosphate acetyl transferase (GlmU). Secondary screen.", "design": "species or system Mycobacterium tuberculosis H37Rv"}, "[11]": {"target": "Genome polyprotein (dengue virus type 2, UniProt P29990)", "sequence (P29990 2492-3391 limits assumed)": "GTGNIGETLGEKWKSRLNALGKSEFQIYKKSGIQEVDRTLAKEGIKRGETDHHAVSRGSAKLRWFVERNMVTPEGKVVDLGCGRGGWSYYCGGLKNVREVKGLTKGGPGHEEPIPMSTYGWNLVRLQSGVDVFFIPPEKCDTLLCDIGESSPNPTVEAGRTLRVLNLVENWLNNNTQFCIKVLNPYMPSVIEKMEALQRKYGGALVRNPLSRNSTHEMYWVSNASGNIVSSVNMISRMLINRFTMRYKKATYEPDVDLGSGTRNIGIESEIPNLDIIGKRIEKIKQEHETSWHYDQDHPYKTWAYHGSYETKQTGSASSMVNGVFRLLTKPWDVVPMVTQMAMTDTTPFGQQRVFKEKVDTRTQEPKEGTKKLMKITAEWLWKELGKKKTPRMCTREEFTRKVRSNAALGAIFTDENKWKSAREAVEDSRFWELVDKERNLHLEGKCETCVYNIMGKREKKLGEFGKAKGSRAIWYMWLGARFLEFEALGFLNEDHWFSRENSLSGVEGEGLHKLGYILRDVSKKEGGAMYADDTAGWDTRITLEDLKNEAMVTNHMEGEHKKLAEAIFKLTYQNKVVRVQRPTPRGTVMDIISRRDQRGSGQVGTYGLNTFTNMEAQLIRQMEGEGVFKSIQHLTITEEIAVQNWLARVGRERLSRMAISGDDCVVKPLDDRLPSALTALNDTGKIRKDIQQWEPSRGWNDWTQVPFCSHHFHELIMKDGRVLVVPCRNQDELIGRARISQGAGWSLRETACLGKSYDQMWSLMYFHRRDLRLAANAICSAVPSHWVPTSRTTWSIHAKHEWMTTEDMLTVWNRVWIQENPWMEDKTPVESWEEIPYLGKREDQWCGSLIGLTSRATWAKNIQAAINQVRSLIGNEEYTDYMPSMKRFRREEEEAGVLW", "experiment": "Dengue-2 NS5 methyltransferase inhibitors, primary screen, biochemical, confirmation dose response (AID 588689)", "type": "functional"}, "[12]": {"target": "T2, Carboxy-terminal domain RNA polymerase II polypeptide A small phosphatase 1 (Homo sapiens, UniProt Q9GZU7)", "T2 sequence (Q9GZU7 whole entry)": "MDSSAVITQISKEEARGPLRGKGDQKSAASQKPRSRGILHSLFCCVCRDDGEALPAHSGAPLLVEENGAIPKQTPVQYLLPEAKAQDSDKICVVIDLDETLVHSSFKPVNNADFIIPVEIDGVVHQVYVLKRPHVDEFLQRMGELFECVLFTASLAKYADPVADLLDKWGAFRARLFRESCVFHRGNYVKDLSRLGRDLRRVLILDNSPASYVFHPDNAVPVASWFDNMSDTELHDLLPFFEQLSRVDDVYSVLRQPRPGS", "experiment": "inhibitors of CTDSP1, concentration-response testing, biochemical assay, absorbance-based, actives from ultra-high-throughput screening (AID 540297)", "type": "functional"}, "[13]": {"experiment": "NIH-3T3 fibroblast cytotoxicity, dose response, cytotoxicity control, cell-based, fluorescence, Alamar Blue, secondary assay (AID 2327);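 also: NIH-3T3 mouse fibroblasts cultured with fluconazole at 8 µg/mL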", "type": "functional"}, "[14]": {"target": "Long-chain-fatty-acid--AMP ligase FadD28 (Mycobacterium tuberculosis, UniProt P9WQ59)", "sequence (P9WQ59 whole entry)": "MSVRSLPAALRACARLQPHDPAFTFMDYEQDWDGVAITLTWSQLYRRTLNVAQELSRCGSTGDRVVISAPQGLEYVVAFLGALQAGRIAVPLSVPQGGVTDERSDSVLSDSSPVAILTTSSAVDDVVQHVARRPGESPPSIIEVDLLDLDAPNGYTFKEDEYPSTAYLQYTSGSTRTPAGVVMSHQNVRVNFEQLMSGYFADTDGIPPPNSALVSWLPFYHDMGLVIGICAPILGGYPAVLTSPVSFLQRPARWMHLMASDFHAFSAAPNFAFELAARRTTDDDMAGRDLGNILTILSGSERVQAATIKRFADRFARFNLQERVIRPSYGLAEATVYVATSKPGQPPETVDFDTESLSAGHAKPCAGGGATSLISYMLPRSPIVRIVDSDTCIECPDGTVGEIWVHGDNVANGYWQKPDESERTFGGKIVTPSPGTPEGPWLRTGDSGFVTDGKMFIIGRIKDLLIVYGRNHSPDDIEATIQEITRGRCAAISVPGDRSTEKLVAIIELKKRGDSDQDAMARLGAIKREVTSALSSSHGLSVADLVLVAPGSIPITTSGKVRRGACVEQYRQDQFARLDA", "experiment": "Fluorescence polarization aasay to screen for inhibitors that compete for the binding of FadD28 to a bisubstrate Measured in Biochemical System Using Plate Reader - 2147-01_Inhibitor_Dose_CherryPick_Activity.", "type": "functional, Mycobacterium tuberculosis H37Rv"}, "[15]": {"target": "Cytochrome P450 3A4 (Homo sapiens, UniProt P08684)", "sequence (P08684 whole entry)": "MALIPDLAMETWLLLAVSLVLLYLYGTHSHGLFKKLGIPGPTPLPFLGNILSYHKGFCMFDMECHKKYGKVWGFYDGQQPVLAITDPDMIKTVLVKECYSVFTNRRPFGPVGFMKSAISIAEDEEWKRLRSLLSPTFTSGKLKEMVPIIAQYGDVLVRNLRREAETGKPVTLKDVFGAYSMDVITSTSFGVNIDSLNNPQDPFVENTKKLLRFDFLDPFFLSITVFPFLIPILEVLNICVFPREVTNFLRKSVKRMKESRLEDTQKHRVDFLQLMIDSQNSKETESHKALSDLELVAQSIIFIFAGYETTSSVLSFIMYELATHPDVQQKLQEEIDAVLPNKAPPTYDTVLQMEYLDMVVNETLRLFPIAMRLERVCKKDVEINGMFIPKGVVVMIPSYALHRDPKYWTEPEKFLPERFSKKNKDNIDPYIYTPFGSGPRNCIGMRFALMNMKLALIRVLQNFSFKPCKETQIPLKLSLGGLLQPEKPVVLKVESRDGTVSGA", "details": "Potency"}, "[16]": {"target": "Cytochrome P450 2C19 (Homo sapiens, UniProt P33261)", "sequence (P33261 whole entry)": "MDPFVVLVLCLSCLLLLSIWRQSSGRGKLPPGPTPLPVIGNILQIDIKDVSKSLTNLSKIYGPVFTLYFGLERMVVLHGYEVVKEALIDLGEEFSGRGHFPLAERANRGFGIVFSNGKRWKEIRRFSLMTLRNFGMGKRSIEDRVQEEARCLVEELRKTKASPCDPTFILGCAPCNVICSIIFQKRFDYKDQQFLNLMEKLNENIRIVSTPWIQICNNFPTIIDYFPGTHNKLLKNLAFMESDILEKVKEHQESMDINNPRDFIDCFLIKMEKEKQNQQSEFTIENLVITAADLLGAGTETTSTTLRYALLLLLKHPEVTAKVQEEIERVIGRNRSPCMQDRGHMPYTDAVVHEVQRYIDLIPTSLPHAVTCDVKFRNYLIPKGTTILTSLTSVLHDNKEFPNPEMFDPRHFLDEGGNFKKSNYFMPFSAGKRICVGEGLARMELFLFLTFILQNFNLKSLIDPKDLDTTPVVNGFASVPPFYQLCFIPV", "experiment": "qHTS Assay for Inhibitors and Substrates of Cytochrome P450 2C19. [Related pubchem assays: 410 ]", "type": "ADME", "details": "read-out: Potency"}, "[17]": {"experiment": "inhibitors of intracellular T. cruzi replication, confirmation, NIH3T3 host cells, beta-gal luminescence (AID 2044);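 also: luminescent beta-galactosidase reporter signal from transgenic T. cruzi replicating inside host cells; inhibitors lower the luminescence signal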", "type": "functional, cell-based"}, "[18]": {"experiment": "cytotoxicity toward NIH3T3 fibroblasts, dose response, counter-screen, cell-based, ATP luminescence, mouse fibroblasts (AID 2010);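 also: cells exposed to compound for about 90 hours before reading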", "type": "functional"}, "[19]": {"experiment": "THP-1 cell cytotoxicity, dose response, cytotoxicity control for Vif-APOBEC3G degradation inhibitor project, THP-1 cells (AID 1117359)", "type": "functional", "details": "Human immunodeficiency virus 1, THP-1"}, "[20]": {"target": "Ephrin type-A receptor 4 (Mus musculus, UniProt Q03137)", "sequence (Q03137 whole entry)": "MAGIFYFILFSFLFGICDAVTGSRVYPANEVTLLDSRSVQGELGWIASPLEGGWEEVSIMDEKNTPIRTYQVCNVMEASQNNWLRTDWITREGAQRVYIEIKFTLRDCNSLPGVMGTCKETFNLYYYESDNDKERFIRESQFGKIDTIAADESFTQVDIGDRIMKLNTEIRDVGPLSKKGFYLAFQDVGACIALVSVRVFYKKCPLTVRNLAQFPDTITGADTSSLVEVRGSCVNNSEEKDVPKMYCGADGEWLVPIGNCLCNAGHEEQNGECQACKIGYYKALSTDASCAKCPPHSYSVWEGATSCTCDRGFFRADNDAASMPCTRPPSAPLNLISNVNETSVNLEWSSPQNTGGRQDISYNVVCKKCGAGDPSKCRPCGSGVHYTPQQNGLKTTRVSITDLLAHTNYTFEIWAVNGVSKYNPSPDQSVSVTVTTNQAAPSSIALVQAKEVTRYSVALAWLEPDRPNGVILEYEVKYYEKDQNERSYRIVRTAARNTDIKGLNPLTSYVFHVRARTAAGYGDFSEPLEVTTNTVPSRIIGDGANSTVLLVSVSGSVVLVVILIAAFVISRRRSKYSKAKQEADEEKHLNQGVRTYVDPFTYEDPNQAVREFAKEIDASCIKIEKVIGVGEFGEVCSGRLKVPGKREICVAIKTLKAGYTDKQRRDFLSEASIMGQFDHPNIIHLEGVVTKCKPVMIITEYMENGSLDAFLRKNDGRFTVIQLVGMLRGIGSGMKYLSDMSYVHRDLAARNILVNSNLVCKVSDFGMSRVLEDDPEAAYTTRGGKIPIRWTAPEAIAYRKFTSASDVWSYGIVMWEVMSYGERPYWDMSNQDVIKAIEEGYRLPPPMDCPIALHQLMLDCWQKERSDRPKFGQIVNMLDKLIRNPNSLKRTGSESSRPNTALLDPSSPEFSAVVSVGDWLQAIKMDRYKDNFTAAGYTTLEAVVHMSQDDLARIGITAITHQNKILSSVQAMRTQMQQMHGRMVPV", "experiment": "inhibitors of EphA4 binding to KYL peptide, primary screen, biochemical, colorimetric, mouse EphA4 (AID 689)", "type": "functional"}},
  "note": "Active and inactive are the calls of the source.",
  "data": [
    {"smiles": "CC1CCN(C(=O)CSc2nc3ccccc3s2)CC1", "values": [
      {"measurement": "EC50", "setting": "[1]", "result": "20.3 µM (active)"},
      {"measurement": "EC50", "setting": "[2]", "result": "482 nM (active)"},
      {"measurement": "EC50", "setting": "[3]", "result": "1.69 µM (active)"},
      {"measurement": "EC50", "setting": "[4]", "result": "< 100 nM (inconclusive)"},
      {"measurement": "EC50", "setting": "[5]", "result": "2.07 µM (active)"},
      {"measurement": "EC50", "setting": "[6]", "result": "185 nM (active)"}
    ]},
    {"smiles": "Cc1cccc(N2NC(=O)/C(=C/c3ccc(-c4ccc(Cl)c(C(=O)O)c4)o3)C2=O)c1", "values": [
      {"measurement": "IC50", "setting": "[7]", "result": "22.3 µM (active)"},
      {"measurement": "AC50", "setting": "[8]", "result": "> 20 µM (inactive)"},
      {"measurement": "EC50", "setting": "[9]", "result": "> 38 µM (not active)"},
      {"measurement": "IC50", "setting": "[10]", "result": "122 µM (active)"},
      {"measurement": "IC50", "setting": "[11]", "result": "22.5 µM (active)"},
      {"measurement": "IC50", "setting": "[12]", "result": "3.84 µM (active)"},
      {"measurement": "EC50", "setting": "[13]", "result": "> 150 µM (inactive)"},
      {"measurement": "AC50", "setting": "[14]", "result": "> 100 µM (inactive)"}
    ]},
    {"smiles": "COC(=O)NC(c1cccs1)C(C(C)=O)C(=O)OC", "note": "(stereo not given)", "values": [
      {"measurement": "AC50", "setting": "[15]", "result": "3.98 µM (inconclusive)"},
      {"measurement": "AC50", "setting": "[16]", "result": "3.98 µM (inconclusive)"}
    ]},
    {"smiles": "O=[N+]([O-])c1ccc(/C=N/Nc2nc(N3CCCC3)nc(N3CCCC3)n2)o1", "values": [
      {"measurement": "EC50", "setting": "[17]", "result": "563 nM (active)"},
      {"measurement": "EC50", "setting": "[18]", "result": "> 60 µM (not active)"},
      {"measurement": "CC50", "setting": "[19]", "result": "> 40 µM (active)"}
    ]},
    {"smiles": "O=C1/C(=C\\c2ccc(-c3ccccc3Cl)o2)SC(=S)N1CC1CCCO1", "note": "(stereo not given)", "values": [
      {"measurement": "IC50", "setting": "[20]", "result": "400 nM (active)"}
    ]}
  ]
}
